Experimental findings from patent US20130012531A1, “TREATMENT METHOD” (priority 2010, published 2013) are described below.

The subject of data set [1] is experimental CNV (choroidal neovascularization) leakage. Description: Fluorescence angiography in experimental laser-induced CNV. In kind it is in vivo, Brown Norway rats. As for the experimental part: (§1) Male Brown Norway rats (10-12 weeks of age, […] weighing 170 to 360 g) were used throughout this study. The animals were treated according to ARVO Statement on the use of animals in ophthalmic and vision research, and all animal experiments were reviewed and approved by municipal and University Hospital animal care committees in Leipzig. The rats were anesthetized with intraperitoneal ketamine (100 mg/kg; Ratiopharm, Ulm, Germany) and xylazine (BayerVital, Leverkusen, Germany; 10 mg/kg). Topical application of tropicamide (5 mg/ml) and phenylephrine hydrochloride (Ankerpharm, Rudolstadt, Germany; 50 mg/ml) were instilled for mydriasis during laser photocoagulation and fluorescein angiography. Fourteen days after laser injury, rats were humanely euthanized using overdoses of carbon dioxide.
(§2) Animals were treated using laser photocoagulation-induced rupture of Bruch's membrane using a 545 nm dye laser (Coherent Argon Dye Laser #920, Coherent Medical Laser, Palo Alto, Calif.) attached to a slit lamp (Carl Zeiss, Oberkochen, Germany). A contact lens was used to retain corneal clarity through photocoagulation. The laser spots were placed separately using the following settings; 50-μm diameter, 0.1 second duration, and 180-mW intensity. To rupture Bruch's membrane, four to seven laser spots were applied between the major retinal vessels close to the optic disc. Pazopanib (approximately 30 μl of a 5 mg/ml sterile-filtered solution) was administered twice daily. Animals of the control group received a vehicle only.
Aiming to document treatment of CNV in its early stage, a treatment schedule was used as follows. Laser photocoagulation was carried out as described above, and pazopanib was applied twice a day topically from post laser day 6 until study end on post laser day 14. Coagulated lesions were first documented by angiography on day 7 post laser, and only rats with ocular CNV were included in the analysis. Sodium fluorescein was injected into tail vein of the anesthetized rats and fluorescein angiograms were obtained by means of a fundus camera (FD-31A, Topcon, Tokyo, Japan). On day 14, rats underwent a second angiography. Angiograms taken 100 to 140 seconds after injection were converted to digital images, and areas of fluorescein leakage with intensity as high as in major vessels were quantified in a masked fashion BY two of us (YY; XMY) using a computer software (NIH image, Research Service Branch, Bethesda, Md.). Differences in fluorescence were calculated by the following formula:
Area of fluorescein leakage on day 14×100%/area of fluorescein leakage on day 7.

The subject of data set [2] is CNV lesions. Kind of data set: Histology (HE) of CNV lesion area on post-laser day 14. Format: in vivo, Brown Norway rats. As for the experimental part:
as §1, §2
After the rats were euthanized on day 14, eyes were immediately dissected and fixed with 4% paraformaldehyde (dissolved in PBS). […] Three to five serial sections from each CNV membrane were measured, and the highest value (representing the top of a given CNV complex) was stored. Digitized images were analyzed and measured with the concomitant image-analysis software (Axiovision; Carl Zeiss). Each lesion was encircled manually, and their area (in μm^2) was calculated by the program.

Data set [3] is described as follows: Ocular tissue distribution and systemic concentrations of radioactivity after topical ocular administration. Format: in vivo, Dutch belted (pigmented) rabbits. As for the experimental part: The ocular tissue distribution and systemic concentrations of radioactivity were assessed following topical ocular administration of pazopanib to Dutch belted (pigmented) rabbits. A single 60-μL at a target dose of 0.3 mg/dose (30 μCi/dose) was administered to the right eye. Blood and ocular tissues from both the dosed and non-dosed (left) eye were collected from one animal at each of eight sampling times up to 24 h, and analyzed for total radioactivity.

A short description of data set [4]: Plasma and ocular tissue drug concentration after topical eye drops. Format: in vivo, Norway Brown rats. The conditions noted are these: for concentration at 5 hours after third drop: female, Norway Brown, rat, topical, 30 μl (5 mg/ml) per drop, three drops over 24 hours, 30 μl drops to left eye only, three times over 24 hours. The procedure:
Female Norway Brown rats were used during these studies. Rats were purchased from Charles River (Portage, Mich.). […]
Rats were euthanized by CO2 inhalation before enucleation and collection of plasma samples. Samples were frozen immediately over dry ice after collection and then stored at −80° C. The ocular tissues were processed through a dissection-pulverization-drug extraction process. Frozen eye sectioning was performed by the following steps. The preparation of rat eye cups was done by removing the anterior portion of the eye with a razor blade followed by removal of the lens and frozen vitreous with forceps. A sagittal section was made in the eye cup before collection of the retina/choroid tissue by scraping the exposed sclera with the round end of a spatula until the pigmented tissue was completely removed from the scleral tissue. The collected tissues were pulverized under liquid nitrogen. Frozen tissue was carefully placed in a liquid nitrogen primed BioPulverizer (Biospec Products Inc, Bartlesville, Okla.). Following pulverization the tissue powder was removed from the pulverizer and transferred into a polypropylene tube. Extraction buffer (50% methanol/50% 0.5 M HCl) was added to tissue powder followed by two cycles of sonication, centrifugation, and supernatant collection. Tissue homogenate supernatant was pooled and frozen on dry ice then stored at −80° C. until drug analysis. The extraction efficacy of this methodology was assumed to be 100% for calculation purposes.
Plasma samples and eye tissue extracts were analyzed for pazopanib using a validated analytical method based on protein precipitation, followed by HPLC/MS/MS analysis, Using 50 μl aliquot of plasma and eye tissue extract, the lower limit of quantification of pazopanib was 1 ng/ml for plasma and 10 ng/ml for eye tissue extract. The higher limit of quantification was 500 ng/ml for plasma and 5000 ng/ml for eye tissue extracts. The computer systems that were used on these studies to acquire and quantify data included Analyst Version 1.4,1 and SMS2000 Version 1.6. Plasma sample concentrations were expressed as ng pazopanib/ml. Tissue concentrations were determined by the following formula: Pazopanib ng/g tissue=([concentration in supernatant ng/ml*extract volume ml]/tissue weight g).

Where [5] appears, read: single 60-μL topical dose 0.3 mg.
Setting [6] is: single 60-μL topical dose 0.3 mg, 2 h.

SMILES strings stand for the structures. Like-named read-outs stand apart in the source and are kept apart here. Bounds are passed on as bounds.

Turning to `Cc1ccc(Nc2nccc(N(C)c3ccc4c(C)n(C)nc4c3)n2)cc1S(N)(=O)=O` [pazopanib, 5-[[4-[(2,3-dimethyl-2H-indazol-6-yl)methylamino]-2-pyrimidinyl]amino]-2-methylbenzenesulfonamide], in data set [1] (lesioned eyes whose fellow (contralateral) eye was pazopanib-treated, % of baseline day 7), the “Area of fluorescein leakage on day 14 x 100% / area on day 7” value was 115.24±16.72%. The “development of CNV lesions (vessel leakage, fluorescence angiography)” value in data set [1] (topically administered, post laser days 7 to 14, versus vehicle) was “significantly reduced”. In addition, the “Area of fluorescein leakage on day 14 x 100% / area on day 7” value in data set [1] (topically treated eyes, twice daily 5 mg/ml eye drops, post laser day 6-14, mean±SD, baseline 100% at day 7) was found to be 111.41±21.34%. In addition, the “inhibition of further lesion development” value in data set [1] (twice-daily topical administration, versus vehicle control eyes) was greater than 89%. The CNV lesion area in data set [2] (eyes treated topically with pazopanib, day 14 after laser) was 7,760.3±2,312.0 μm^2. The “inhibition in lesion size” value in data set [2] (lasered eyes from rats treated topically in the fellow eye) is roughly 34%. Besides, in data set [2] (topically treated eyes, day 14), the “inhibition in lesion size compared to vehicle control” value is given as 71.7%. Moreover, in data set [3] (setting [5]), the “time of choroid peak level” value was 8 h, the “time of highest concentration in blood” value is listed as 1 h, the “time of highest concentration in plasma” value amounted to 2 h and the “time of retina peak level” value turned out to be 4 h. The “highest concentration of radioactivity in blood” value in data set [3] (single 60-μL topical dose 0.3 mg to right eye, at 1 h) is 11.3 ng eq/g. Moreover, the “highest concentration of radioactivity in plasma” value in data set [3] (single 60-μL topical dose 0.3 mg to right eye, at 2 h) was 12,8 ng eq/g. For the same compound, in data set [3] (setting [6]), the “choroid level of radioactivity at 2 h” value is 40.6 ng eq/g and the “retina level of radioactivity at 2 h” value worked out at 9.17 ng eq/g. For the same compound, the “retina peak level of radioactivity” value in data set [3] (single 60-μL topical dose 0.3 mg, at 4 h) came to 10.2 ng eq/g. For the same compound, the “choroid peak level of radioactivity” value in data set [3] (single 60-μL topical dose 0.3 mg, at 8 h) was found to be 60.1 ng eq/g. For the same compound, in data set [4] (eye cup tissues of the fellow non-treated eye (OD), read-out: pazopanib in eye cup tissues, fellow non-treated eye (OD), mean), the concentration at 5 hours after third drop is 159 ng/g. In addition, the concentration at 5 hours after third drop in data set [4] (read-out: pazopanib in eye cup tissues (sclera, choroid, retina), treated eye (OS), mean) was 503 ng/g. Besides, in data set [4] (single 30 μl eye drop), the “plasma level after 24 hours” value is “undetectable” and the “time of peak plasma level” value amounted to 60 min. The compound also registered a peak plasma level in data set [4] (single 30 μl eye drop (5 mg/ml)) of roughly 300 ng/mL.
